Counter-ions that a name gives are not always drawn.
Key:
[1] = Sulfide release with Sugammadex in WT and CSE knockout mice; format: in vivo, mouse; conditions: single injection 0.2 mg/kg
Description: . Free sulfide was measured using 50 μl of plasma with MBB; whereas for detection of ALS and BSS, 50 μl of plasma was added separately into two sets of 4 mL BD vacutainer tubes. […]. Following a 30-min incubation on a nutator, the reaction liquid was removed, and the evolved sulfide gas subsequently trapped by adding 500 μl of 100 mM Tris-HCl buffer (pH 9.5, 0.1 mM DTPA) into the BD vacutainer tube and incubated again for 30 min on a nutator mixer. […]. Determination of ALS was made by reacting plasma samples with acidic phosphate buffer alone and subsequent trapping of evolved sulfide. Measurement of BSS was determined by subtracting the acid labile value from the total sulfide protocol containing TCEP reductant treatment under acidic conditions. […].
In clinical practice, sugammadex is administered at a dose of 4 mg/kg to up to 16 mg/kg for its current use. In the inventors' mice studies, the inventors used a single injection of 0.2 mg/kg for pharmacokinetic studies, which was a 20 to 80 times lower than the clinical usage of sugammadex.

[2] = biological target: T1, CSE (Homo sapiens, UniProt P32929); experiment: CSE activity with Sugammadex in human plasma; design: from tissue; host or cells: human blood plasma (lithium heparin)
T1 sequence (P32929 whole entry): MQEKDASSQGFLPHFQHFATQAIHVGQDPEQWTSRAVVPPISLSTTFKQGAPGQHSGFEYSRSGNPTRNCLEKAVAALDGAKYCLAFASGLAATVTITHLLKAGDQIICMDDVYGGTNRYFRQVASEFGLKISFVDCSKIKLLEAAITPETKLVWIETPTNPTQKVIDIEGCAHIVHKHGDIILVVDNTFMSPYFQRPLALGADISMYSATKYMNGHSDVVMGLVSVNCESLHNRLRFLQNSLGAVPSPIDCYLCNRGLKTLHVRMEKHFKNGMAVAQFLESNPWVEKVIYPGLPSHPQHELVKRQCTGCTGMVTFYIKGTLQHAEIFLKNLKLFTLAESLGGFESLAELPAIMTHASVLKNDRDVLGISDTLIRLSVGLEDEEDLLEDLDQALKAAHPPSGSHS
Description: (§1) 2.9 Cystathionine γ-lyase (CSE) activity measurement: CSE activity was measured as previously reported. Plasma or tissue lysates were incubated with 2 mM cystathionine, 0.25 mM pyridoxal 5′-phosphate in 100 mM Tris-HCl buffer (pH 8.3) for 60 min at 37° C. 10% Trichloroacetic acid was added into reaction mixture. After centrifugation, the supernatant was mixed with 1% ninhydrin reagent and incubated for 5 min in a boiling-water bath. After heating, the solution was cooled on ice for 2 minutes and color reaction development measured 20 minutes at 455 nm using a spectrophotometer (Biotek). CSE activity was assessed by cystathionine consumption and enzyme activity expressed as fold change calculated from nanomoles of cystathionine consumed per mg of total protein per hour of incubation.

[3] = Sulfide release with Sugammadex in human plasma; conditions: human blood
Description: (§2) . Free sulfide was measured using 50 μl of plasma with MBB; whereas for detection of ALS and BSS, 50 μl of plasma was added separately into two sets of 4 mL BD vacutainer tubes. […]. Following a 30-min incubation on a nutator, the reaction liquid was removed, and the evolved sulfide gas subsequently trapped by adding 500 μl of 100 mM Tris-HCl buffer (pH 9.5, 0.1 mM DTPA) into the BD vacutainer tube and incubated again for 30 min on a nutator mixer. […]. Determination of ALS was made by reacting plasma samples with acidic phosphate buffer alone and subsequent trapping of evolved sulfide. Measurement of BSS was determined by subtracting the acid labile value from the total sulfide protocol containing TCEP reductant treatment under acidic conditions. […]

[4] = tested on: NO; experiment: Total NO in plasma of human methamphetamine users; conditions: methamphetamine-users vs healthy controls
[5] = tested on: H2S; format: in vivo, mouse
[6] = tested on: femoral artery; conditions: mouse, in vivo
[7] = tested on: CSE, p-eNOS and total eNOS; experiment: Western blot of mouse skeletal muscle; format: in vivo; conditions: methamphetamine treated mice
Description: (§3) 2.4 ‘Binge and crash’ mouse methamphetamine model: Twelve-week-old male WT (C57BL6/J) male mice were used for these experiments. Mice were exposed to methamphetamine according to a known protocol that models binge methamphetamine exposure in humans. C57BL/6 male mice received 0-6 mg/kg methamphetamine (Methamphetamine HCl, Sigma-Aldrich, St. Louis, Mo.) through subcutaneous (s.c.) injection five days in a week for four weeks. Methamphetamine was dissolved in a sterile saline (Sigma-Aldrich) solution (0.9% w/v NaCl). Vehicle treated mice received the same volume of saline at all-time points for four weeks. Briefly, methamphetamine-exposed and saline-control mice were injected subcutaneously with methamphetamine or saline in a volume of 5 ml/kg with an insulin syringe. Alternating sites of injection were used to avoid any possible damage to tissue and possible stress of the animal. The dose of methamphetamine was escalated over the course of the first cycle, which occurs during the first week of injections (days 1-5) followed by three weeks of repeated cycles of meth injections (days 8-12, 15-19, and 22-26). Mice received 4 injections per day, 2 hours apart with doses of meth including 0, 1, 2, 3, 4, 5, and 6 mg/kg subcutaneously. At the end of the 4 weeks, mice were sacrificed by isoflurane overdose, plasma and tissue were harvested.
2.10 Western blot analysis: Mouse skeletal muscle tissues were homogenized in a solution containing 50 mM Tris buffer (pH 7.4), 2 mM EDTA, 5 mM EGTA, 0.1% SDS, a protease inhibitor cocktail (Roche, Indianapolis, Ind.), and phosphatase inhibitor cocktail type I and II (Sigma, Saint Louis, Mo.). Homogenates were centrifuged at 500×g for 15 min and supernatants were collected. Protein concentrations were analyzed using the Bradford protein assay (BIORAD, Hercules, Calif.). […] Chemiluminescent bands were detected and quantified using NIH Image J software.

[8] = biological target: T1, CSE; experiment: CSE enzyme activity in endothelial cells; format: cell-based; design: host or cells: HUVEC; conditions: HUVECs, 100 μM, 30 min, vs PBS control
Description: 2.2 Cell culture and treatments: Human umbilical vein endothelial cells (HUVECs) were purchased from Lifeline Cell Technology (Cat. No. FC-0044) and cultured in VascuLife® Basal Medium (Cat. No. LM-0002) supplemented with the appropriate LifeFactors® Kit (No. LL-0003). All cells were grown in tissue culture flasks at 37° C. and 5% CO2. HUVECs from passages 2-4 were used in the experiments.
as §1

[9] = tested on: skeletal muscle tissue; format: in vivo, mouse
[10] = tested on: H2S; experiment: Sulfide pools in plasma of human methamphetamine users; conditions: methamphetamine-users vs age matched healthy controls
Description: 2.6 Human blood collection: Human subjects were interviewed, and medical record data were collected for analysis of methamphetamine-use. Blood samples were collected from already-established catheterization into 6 mL BD vacutainer tubes with lithium heparin. Samples were transported to the lab within 15 min on ice and were centrifuged at 1500 RCF for 4 min at 4° C.
as §2

[11] = tested on: superoxide; experiment: Oxidative stress measurement (DHE staining) in skeletal muscle; format: in vivo, mouse; conditions: skeletal muscle sections, methamphetamine vs saline
Description: as §3, with “The dose of methamphetamine was escalated over the course of the first cycle, which occurs during the first week of injections (days 1-5) followed by three weeks of repeated cycles of meth injections (days 8-12, 15-19, and 22-26). Mice received 4 injections per day, 2 hours apart with doses of meth including 0, 1, 2, 3, 4, 5, and 6 mg/kg subcutaneously. At the end of the 4 weeks, mice were sacrificed by isoflurane overdose, plasma and tissue were harvested.” left out
2.12 Oxidative Stress measurement: Levels of oxidative stress were measured by staining skeletal muscle tissue sections with 5 μM Dihydroethidium (DHE; Sigma-Aldrich, CA USA) and visualized using a NIKON ECLIPSE Ti-E microscope (Nikon Instruments Inc., Melville, N.Y.) for image acquisition. […]

[12] = tested on: NO; experiment: NO metabolite measurements in mouse plasma and skeletal muscle; format: in vivo
[13] = tested on: CSE; format: in vivo, mouse; conditions: skeletal muscle tissues of methamphetamine treated mice
[14] = 4-week binge and crash methamphetamine
[15] = 4-week binge and crash methamphetamine vs controls
[16] = skeletal muscle, methamphetamine treated mice
[17] = skeletal muscle, methamphetamine treatment

O=C([O-])CCSC[C@@H]1OC2O[C@@H]3[C@@H](O)[C@H](O)C(O[C@@H]4[C@@H](O)[C@H](O)C(O[C@@H]5[C@@H](O)[C@H](O)C(O[C@@H]6[C@@H](O)[C@H](O)C(O[C@@H]7[C@@H](O)[C@H](O)C(O[C@@H]8[C@@H](O)[C@H](O)C(O[C@@H]9[C@@H](O)[C@H](O)C(O[C@@H]1[C@@H](O)[C@@H]2O)O[C@H]9CSCCC(=O)[O-])O[C@H]8CSCCC(=O)[O-])O[C@H]7CSCCC(=O)O)O[C@H]6CSCCC(=O)O)O[C@H]5CSCCC(=O)O)O[C@H]4CSCCC(=O)[O-])O[C@H]3CSCCC(=O)[O-].[Na+].[Na+].[Na+].[Na+].[Na+] [Sugammadex]
plasma sulfide levels ([1]; CSE knockout mice): increases | plasma sulfide levels ([1]; wild type mice): increases | plasma CSE activity [2]: increased | bound sulfane sulfur [3]: increases | total sulfide levels [3]: increases

CN[C@@H](C)Cc1ccccc1 [methamphetamine, Methamphetamine hydrochloride]
total NO levels [4]: trend of decreasing | reduction in plasma total sulfide [5, 14]: 3 fold | plasma acid-labile sulfide [5, 15]: significant reduction | plasma bound sulfane sulfur [5, 15]: significant reduction | flow mediated vasodilation responses [6]: significantly blunted | mean blood flow velocity recovery after occlusion removal [6]: significantly blunts | CSE protein expression [7]: decreased expressions | p-eNOS protein expression [7]: decreased expressions | total eNOS protein [7]: no change | CSE enzyme activity [8]: substantially decreased | eNOS expression ([9]; methamphetamine treated mice): no change | CBS gene expression [9, 16]: no significant changes | CSE gene expression [9, 16]: significantly decreased | ICAM-1 expression [9, 17]: concomitant increase | VCAM-1 expression [9, 17]: concomitant increase | NOx4 expression ([9]; skeletal muscles, methamphetamine treatment): marginal increase | acid-labile sulfide levels [10]: decrease | DHE fluorescence (oxidative stress) [11]: significant increase | plasma S-nitrosothiol (bound pool) [12, 14]: decreased | plasma free nitrite [12, 14]: decreased | plasma total NO levels [12, 14]: two-fold reduction | skeletal muscle total NO ([12]; methamphetamine treated mice vs saline): significantly reduced | CSE activity [13]: significant decrease

— patent US11883426B2, “Treatment for methamphetamine cardiovascular disease” (priority 2020, dated 2024)
